Experimental data taken from patent publication US8569344B2, “N-piperidinyl acetamide derivatives as calcium channel blockers” (Zalicus Pharmaceuticals Ltd., priority 2008, dated 2013).

biological target: T1, human α1H T-type channels (Homo sapiens, UniProt O95180); assay: T-type calcium channel block, whole cell patch clamp in HEK cells (α1H); assay type: cell-based; conditions: HEK cells, patch clamp, mainly non-inactivated protocol; values above 10 μM shown as 10 μM; read-out: T-type Calcium Channel Block α1H IC50
T1 construct: expressed in transfected cells; host or cells: HEK 293
Procedure: T-type calcium channel blocking activity was assayed in human embryonic kidney cells, HEK 293, stably transfected with the T-type calcium channel subunits. Briefly, cells were cultured in Dulbecco's modified eagle medium (DMEM) supplemented with 10% fetal bovine serum, 200 U/ml penicillin and 0.2 mg/ml streptomycin at 37° C. with 5% CO2. At 85% confluency cells were split with 0.25% trypsin/1 mM EDTA and plated at 10% confluency on glass coverslips. […] Fresh DMEM was supplied and the cells transferred to 28° C./5% CO2. Cells were incubated for 1 to 2 days prior to whole cell recording.
Standard patch-clamp techniques were employed to identify blockers of T-type currents. Briefly, previously described HEK cell lines stably expressing human α1G, α1H and α1I T-type channels were used for all the recordings (passage #: 4-20, 37° C., 5% CO2). Whole cell patch clamp experiments were performed using an Axopatch 200B amplifier (Axon Instruments, Burlingame, Calif.) linked to a personal computer equipped with pCLAMP software. Data were analyzed using Clampfit (Axon Instruments) and SigmaPlot 4.0 (Jandel Scientific). To obtain T-type currents, plastic dishes containing semi-confluent cells were positioned on the stage of a ZEISS AXIOVERT S100 microscope after replacing the culture medium with external solution (see below). Whole-cell patches were obtained using pipettes (borosilicate glass with filament, O.D.: 1.5 mm, I.D.: 0.86 mm, 10 cm length), fabricated on a SUTTER P-97 puller with resistance values of ˜5 MΩ (see below for internal solution).
In the non-inactivating protocol, the holding potential is set at −110 mV and with a pre-pulse at −100 mV for 1 second prior to the test pulse at −40 mV for 50 ms.
Test compounds were dissolved in external solution, 0.1-0.01% DMSO. After ˜10 min rest, they were applied by gravity close to the cell using a WPI microfil tubing. The “non-inactivated” pre-pulse was used to examine the resting block of a compound. The “inactivated” protocol was employed to study voltage-dependent block. […] Values are shown in μM and values above 10 μM are simply represented as 10 μM.

T1 sequence (O95180 whole entry): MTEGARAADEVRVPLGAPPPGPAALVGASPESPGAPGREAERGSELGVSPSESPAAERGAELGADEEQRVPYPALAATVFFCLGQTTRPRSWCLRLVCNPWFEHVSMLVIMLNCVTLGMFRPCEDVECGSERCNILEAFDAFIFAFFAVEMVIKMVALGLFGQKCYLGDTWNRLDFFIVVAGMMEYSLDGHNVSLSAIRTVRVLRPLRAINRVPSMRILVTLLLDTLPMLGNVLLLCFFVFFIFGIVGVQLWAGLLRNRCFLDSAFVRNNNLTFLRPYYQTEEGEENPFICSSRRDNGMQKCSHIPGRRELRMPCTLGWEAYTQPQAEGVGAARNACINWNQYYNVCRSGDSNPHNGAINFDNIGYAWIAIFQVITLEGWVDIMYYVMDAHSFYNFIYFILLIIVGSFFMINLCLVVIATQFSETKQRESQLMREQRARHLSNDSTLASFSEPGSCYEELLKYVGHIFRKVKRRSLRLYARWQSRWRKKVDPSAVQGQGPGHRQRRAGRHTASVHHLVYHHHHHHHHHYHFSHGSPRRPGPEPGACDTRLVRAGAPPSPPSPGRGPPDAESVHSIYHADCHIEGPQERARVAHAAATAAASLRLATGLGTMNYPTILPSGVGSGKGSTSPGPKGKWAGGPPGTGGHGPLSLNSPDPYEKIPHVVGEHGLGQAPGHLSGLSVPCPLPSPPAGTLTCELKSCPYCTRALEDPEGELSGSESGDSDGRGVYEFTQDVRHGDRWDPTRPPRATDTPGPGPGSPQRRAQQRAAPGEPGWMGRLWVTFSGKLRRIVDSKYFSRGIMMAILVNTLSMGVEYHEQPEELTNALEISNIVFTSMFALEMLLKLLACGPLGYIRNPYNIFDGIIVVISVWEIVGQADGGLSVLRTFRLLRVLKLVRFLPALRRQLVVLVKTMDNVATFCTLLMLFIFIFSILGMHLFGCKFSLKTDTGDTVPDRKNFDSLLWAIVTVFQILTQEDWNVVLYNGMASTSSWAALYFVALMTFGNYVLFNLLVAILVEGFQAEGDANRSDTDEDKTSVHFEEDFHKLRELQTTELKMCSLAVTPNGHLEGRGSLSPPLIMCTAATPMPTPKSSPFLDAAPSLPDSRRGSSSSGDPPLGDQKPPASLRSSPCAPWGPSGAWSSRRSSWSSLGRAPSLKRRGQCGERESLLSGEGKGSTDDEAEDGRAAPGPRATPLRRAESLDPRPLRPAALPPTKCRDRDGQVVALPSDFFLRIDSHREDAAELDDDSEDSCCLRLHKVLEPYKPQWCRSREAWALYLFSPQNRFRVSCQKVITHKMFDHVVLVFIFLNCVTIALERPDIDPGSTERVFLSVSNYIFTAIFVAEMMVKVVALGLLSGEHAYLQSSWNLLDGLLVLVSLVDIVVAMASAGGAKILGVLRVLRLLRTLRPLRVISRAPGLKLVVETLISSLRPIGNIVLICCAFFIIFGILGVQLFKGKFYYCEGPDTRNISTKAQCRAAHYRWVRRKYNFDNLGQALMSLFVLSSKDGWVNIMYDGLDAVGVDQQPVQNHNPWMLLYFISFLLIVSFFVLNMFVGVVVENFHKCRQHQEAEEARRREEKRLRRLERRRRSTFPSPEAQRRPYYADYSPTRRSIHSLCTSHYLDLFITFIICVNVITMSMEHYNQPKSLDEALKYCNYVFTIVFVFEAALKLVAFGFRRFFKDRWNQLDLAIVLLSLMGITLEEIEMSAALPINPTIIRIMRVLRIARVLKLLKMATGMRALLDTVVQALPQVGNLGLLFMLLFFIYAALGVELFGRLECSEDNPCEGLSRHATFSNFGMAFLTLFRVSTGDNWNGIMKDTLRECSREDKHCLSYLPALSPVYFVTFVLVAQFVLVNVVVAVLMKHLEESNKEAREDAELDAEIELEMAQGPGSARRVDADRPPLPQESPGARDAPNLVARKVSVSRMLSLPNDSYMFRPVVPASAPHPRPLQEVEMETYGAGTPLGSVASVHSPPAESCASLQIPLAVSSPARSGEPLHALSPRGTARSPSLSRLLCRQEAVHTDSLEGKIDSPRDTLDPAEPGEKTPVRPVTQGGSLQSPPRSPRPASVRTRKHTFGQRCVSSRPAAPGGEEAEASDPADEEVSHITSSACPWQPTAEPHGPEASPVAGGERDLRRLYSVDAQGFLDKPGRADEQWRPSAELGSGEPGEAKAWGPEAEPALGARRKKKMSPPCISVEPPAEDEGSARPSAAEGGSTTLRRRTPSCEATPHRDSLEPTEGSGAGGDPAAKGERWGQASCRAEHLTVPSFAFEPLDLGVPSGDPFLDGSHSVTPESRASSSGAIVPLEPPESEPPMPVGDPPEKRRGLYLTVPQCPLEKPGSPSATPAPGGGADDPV

| IC50 | SMILES |
| --- | --- |
| 430 nM | O=C(CC1CC1)NCCN1CCC(CNC(=O)c2cc(C(F)(F)F)cc(C(F)(F)F)c2)CC1 [Compound 63, N-((1-(2-(2-cyclopropylacetamido)ethyl)piperidin-4-yl)methyl)-3,5-bis(trifluoromethyl)benzamide] |
| 280 nM | CCC1CCCN1C(=O)CN1CCC(CNC(=O)c2cc(C(F)(F)F)cc(C(F)(F)F)c2)CC1 (centres unmarked) [Compound 105, N-((1-(2-(2-ethylpyrrolidin-1-yl)-2-oxoethyl)piperidin-4-yl)methyl)-3,5-bis(trifluoromethyl)benzamide] |
| 60 nM | O=C(CN1CCC(CNC(=O)c2cc(C(F)(F)F)cc(C(F)(F)F)c2)CC1)NC1CCCC1 [Compound 92, N-((1-(2-(cyclopentylamino)-2-oxoethyl)piperidin-4-yl)methyl)-3,5-bis(trifluoromethyl)benzamide] |
| 5560 nM | O=C(NCC1CCN(CC(=O)N2CCC(CO)CC2)CC1)c1cc(C(F)(F)F)cc(C(F)(F)F)c1 [Compound 106, N-((1-(2-(4-(hydroxymethyl)piperidin-1-yl)-2-oxoethyl)piperidin-4-yl)methyl)-3,5-bis(trifluoromethyl)benzamide] |
| > 10000 nM | O=C(NCC1CCN(CC(=O)N2CCC(O)CC2)CC1)c1cc(C(F)(F)F)cc(C(F)(F)F)c1 [Compound 102, N-((1-(2-(4-hydroxypiperidin-1-yl)-2-oxoethyl)piperidin-4-yl)methyl)-3,5-bis(trifluoromethyl)benzamide] |
| 1470 nM | CC(C)(C)OC(=O)N1CCC(O)(CN2CCC(CNC(=O)c3cc(F)cc(C(F)(F)F)c3)CC2)CC1 [Compound 599, tert-butyl 4-((4-((3-fluoro-5-(trifluoromethyl)benzamido)methyl)piperidin-1-yl)methyl)-4-hydroxy-piperidine-1-carboxylate] |
| 100 nM | C[C@H]1CC[C@H](NC(=O)CN2CCC(CNC(=O)c3cc(C(F)(F)F)cc(C(F)(F)F)c3)CC2)CC1 [Compound 97, N-((1-(2-((1r,4r)-4-methylcyclo-hexylamino)-2-oxoethyl)piperidin-4-yl)methyl)-3,5-bis(trifluoromethyl) benzamide] |
| 2410 nM | O=C(NCC1CCN(C2CN(C(=O)c3cccc(Br)c3)C2)CC1)c1cc(F)cc(Cl)c1 [Compound 602, N-((1-(1-(3-bromobenzoyl)azetidin-3-yl)piperidin-4-yl)methyl)-3-chloro-5-fluorobenzamide] |
| 260 nM | CN(C(=O)CN1CCC(CNC(=O)c2cccc(Br)c2)CC1)C1(C)CCC1 [Compound 593, 3-bromo-N-((1-(2-(methyl(1-methylcyclobutyl)amino)-2-oxoethyl)piperidin-4-yl)methyl) benzamide] |
| > 10000 nM | CC1(C(=O)N2CC(N3CCC(CNC(=O)c4cc(F)cc(Cl)c4)CC3)C2)CC1 [Compound 608, 3-chloro-5-fluoro-N-((1-(1-(1-methylcyclopropanecarbonyl)azetidin-3-yl)piperidin-4-yl)methyl)benzamide] |
| 1900 nM | O=C(NCC1CCN(C2CN(C(=O)c3cc(F)cc(C(F)(F)F)c3)C2)CC1)c1cc(F)cc(Cl)c1 [Compound 604, 3-chloro-5-fluoro-N-((1-(1-(3-fluoro-5-(trifluoromethyl)benzoyl)azetidin-3-yl)piperidin-4-yl)methyl)benzamide] |
| > 10000 nM | O=C(NCC1CCN(C(=O)CNC2CC2)CC1)c1cc(F)cc(C(F)(F)F)c1 [Compound 284, N-((1-(2-(cyclopropylamino)acetyl)piperidin-4-yl)methyl)-3-fluoro-5-(trifluoromethyl)benzamide] |
| 3600 nM | O=C(NCC1CCN(CC(=O)N2CCCC(O)C2)CC1)c1cc(C(F)(F)F)cc(C(F)(F)F)c1 (centres unmarked) [Compound 98, N-((1-(2-(3-hydroxypiperidin-1-yl)-2-oxoethyl)piperidin-4-yl)methyl)-3,5-bis(trifluoromethyl)benzamide] |
| > 10000 nM | O=C(CN1CCC(CNC(=O)c2cc(C(F)(F)F)cc(C(F)(F)F)c2)CC1)NC1CC1 [Compound 95, N-((1-(2-(cyclopropylamino)-2-oxoethyl)piperidin-4-yl)methyl)-3,5-bis(trifluoromethyl)benzamide] |

Further lines, the molecule ahead of its results:

| SMILES | IC50 |
| --- | --- |
| O=C(NCC1CCN(CCNC(=O)C2CCCC2)CC1)c1cc(C(F)(F)F)cc(C(F)(F)F)c1 [Compound 62, N-((1-(2-(cyclopentanecarboxamido)ethyl)piperidin-4-yl)methyl)-3,5-bis(trifluoromethyl)benzamide] | 230 nM |
| C[C@H]1CC[C@H](C(=O)NCCN2CCC(CNC(=O)c3cc(C(F)(F)F)cc(C(F)(F)F)c3)CC2)CC1 [Compound 64, N-((1-(2-((1r,4r)-4-methylcyclohexanecarboxamido)ethyl)piperidin-4-yl)methyl)-3,5-bis(trifluoromethyl)benzamide] | 200 nM |
| O=C(CN1CCC(CNC(=O)c2cc(C(F)(F)F)cc(C(F)(F)F)c2)CC1)NC1CCCCC1 [Compound 94, N-((1-(2-(cyclohexylamino)-2-oxoethyl)piperidin-4-yl)methyl)-3,5-bis(trifluoromethyl)benzamide] | 60 nM |
| CS(=O)(=O)c1cc(C(=O)NCC2CCN(CC(=O)N3CCC[C@@H]3C(F)(F)F)CC2)cc(C(F)(F)F)c1 [Compound 589, (R)-3-(methylsulfonyl)-N-((1-(2-oxo-2-(2-(trifluoromethyl)pyrrolidin-1-yl)ethyl)piperidin-4-yl)methyl)-5-(trifluoromethyl) benzamide] | > 10000 nM |
| O=C(NCC1CCN(C2CN(C(=O)c3cccc(Cl)c3)C2)CC1)c1cc(F)cc(Cl)c1 [Compound 606, 3-chloro-N-((1-(1-(3-chlorobenzoyl)azetidin-3-yl)piperidin-4-yl)methyl)-5-fluorobenzamide] | 3300 nM |
| COc1cc(Cl)cc(C(=O)NCC2CCN(CC(=O)N(C)C(C)(C)C)CC2)c1 [Compound 596, N-((1-(2-(tert-butyl(methyl)amino)-2-oxoethyl)piperidin-4-yl)methyl)-3-chloro-5-methoxy-benzamide] | 160 nM |
| CC(C)CS(=O)(=O)NCCN1CCC(CNC(=O)c2cc(C(F)(F)F)cc(C(F)(F)F)c2)CC1 [Compound 27, N-((1-(2-(2-methylpropylsulfonamido)ethyl)piperidin-4-yl)methyl)-3,5-bis(trifluoromethyl)benzamide] | 190 nM |
| O=C(NCC1CCN(C2CN(C(=O)c3cc(F)cc(Cl)c3)C2)CC1)c1cc(F)cc(Cl)c1 [Compound 605, 3-chloro-N-((1-(1-(3-chloro-5-fluorobenzoyl)azetidin-3-yl)piperidin-4-yl)methyl)-5-fluorobenzamide] | 3580 nM |
| CC(C)(C)OC(=O)N1CCC(O)(CN2CCC(CNC(=O)c3cc(F)cc(Cl)c3)CC2)CC1 [Compound 598, tert-butyl 4-((4-((3-chloro-5-fluorobenzamido)methyl)piperidin-1-yl)methyl)-4-hydroxypiperidine-1-carboxylate] | 1650 nM |
| O=C(NCC1CCN(C2CN(C(=O)c3cccc(OC(F)(F)F)c3)C2)CC1)c1cc(F)cc(Cl)c1 [Compound 603, 3-chloro-5-fluoro-N-((1-(1-(3-(trifluoromethoxy)benzoyl)azetidin-3-yl)piperidin-4-yl)methyl)benzamide] | 810 nM |
| CC(C)(C)C(=O)NCCN1CCC(CNC(=O)c2cc(C(F)(F)F)cc(C(F)(F)F)c2)CC1 [Compound 60, N-((1-(2-pivalamidoethyl)piperidin-4-yl)methyl)-3,5-his(trifluoromethyl)benzamide] | 220 nM |
| COCCC(=O)NCCN1CCC(CNC(=O)c2cc(C(F)(F)F)cc(C(F)(F)F)c2)CC1 [Compound 68, N-((1-(2-(3-methoxypropanamido)ethyl)piperidin-4-yl)methyl)-3,5-bis(trifluoromethyl) benzamide] | 7560 nM |
| CC(C)(C)NC(=O)N1CC(N2CCC(CNC(=O)c3cc(F)cc(Cl)c3)CC2)C1 [Compound 612, N-tert-butyl-3-(4-((3-chloro-5-fluorobenzamido)methyl)piperidin-1-yl)azetidin-1-carboxamide] | > 10000 nM |
| CC(C)(CN1CCC(CNC(=O)c2cc(F)cc(C(F)(F)F)c2)CC1)NS(=O)(=O)C(F)(F)F [Compound 6, 3-fluoro-N-((1-(2-methyl-2-(trifluoromethylsulfonamido)propyl)piperidin-4-yl)methyl)-5-(trifluoromethyl)benzamide] | 1320 nM |
| O=C(NCC1CCN(CC(=O)N2CCCC2C(F)(F)F)CC1)c1cc(C(F)(F)F)cc(C(F)(F)F)c1 (centres unmarked) [Compound 107, N-((1-(2-oxo-2-(2-(trifluoromethyl)pyrrolidin-1-yl)ethyl)piperidin-4-yl)methyl)-3,5-bis(trifluoromethyl) benzamide] | 160 nM |
